Values of other authors as cited in patent US6153225A (Elan Pharma International Limited, priority 1998, dated 2000).
Where a name gives a salt, the structure may show the parent alone.

Structure (SMILES)	pain relief compared with aspirin (menstrual cramps, toothaches, minor arthritis, injuries with inflammation)	remission of acute and very high intensity pain (naproxen sodium salt)
COc1ccc2cc([C@H](C)C(=O)O)ccc2c1 [Naproxen, d-2(6-methoxy-2-naphthyl)propionic acid]	more potent pain reliever than aspirin	
COc1ccc2cc([C@H](C)C(=O)O)ccc2c1 [naproxen sodium salt]		rapid and sustained remission
